Source: article PMC10114980, “Triple targeting of mutant EGFR^L858R/T790M, COX-2, and 15-LOX: design and synthesis of novel quinazolinone tethered phenyl urea derivatives for anti-inflammatory and anticancer evaluation” (Journal of Enzyme Inhibition and Medicinal Chemistry, 2023)
Several values for one entry are separate records, joined by “and”; a condition that tells them apart may be missing. Identical values can stand only once.

Experiments:
IGROV1 = test: NCI single dose screen, IGROV1; type: cell-based; conditions: Homo sapiens, IGROV-1; IGROV1, ovarian cancer; single dose 10^−5 M; read-out: growth inhibition percentage
Experimental: (§1) Screening of the anticancer activity of the newly synthesised compounds (6a, 6c, 6d, 6e, 6j, 6l, 6m, 6n, 6o, and 6p) was performed by the US National Cancer Institute (NCI) using 60 different human tumour cell lines in accordance with standard procedures formerly reported.
(§2) In vitro anticancer screening was carried out for the selected compounds at a single dose (10^−5 M) against 60 different human tumour cell lines of nine different cancer cell types: leukaemia, lung, colon, CNS, melanoma, ovarian, renal, prostate, and breast cancers.

SK-MEL-28 = test: NCI single dose screen, SK-MEL-28; type: cell-based; conditions: Homo sapiens; SK-MEL-28, melanoma; single dose 10^−5 M; read-out: growth inhibition percentage
Experimental: as §1, §2

[1] = test system: LPS-induced ROS production in RAW 264.7 cells; test: ROS production in LPS-activated RAW 264.7 macrophage cells (DCFH-DA); type: cell-based; conditions: Mus musculus, RAW264.7; LPS-activated RAW 264.7 cells; mean ± SEM, three replicates
Experimental: (§3) TNF-α and IL-6 production were detected in RAW 264.7 macrophage cell culture supernatants following the induction of inflammation by LPS. Moreover, the probes of oxidative species 2,7-dichlorofluorescein diacetate (DCFH-DA) (Molecular Probes) and NO, 4-amino-5-methylamino-2,7-difluorofluorescein diacetate (DAF-FM diacetate) (Molecular Probes) were used to investigate the antioxidant and NO production inhibitory potential of the test compounds. Briefly, RAW 264.7 cells were cultured in black 96 well plates (200 000 cells/mL, 100 µl/well) for 24 h followed by the incubation with the individual test compounds or the reference drugs at different concentrations (12.5, 25, 50, and 100 µM) for 2 h at 37 °C. LPS was then added at a final concentration of 1 µg/mL for an additional 18 h. The cell culture supernatant was collected from cells treated with the different compounds at 25 µM to measure TNF-α and IL-6 levels (1:10 dilution) using DuoSet ELISA kits (R&D Systems, Minneapolis, MN) following the manufacturer’s instructions. Then, the plates were washed to perform ROS and NO detection assays as detailed in our previous studies[16]^,[27].

OVCAR-3 = test: NCI single dose screen, OVCAR-3; type: cell-based; conditions: Homo sapiens; OVCAR-3, ovarian cancer; single dose 10^−5 M; read-out: growth inhibition percentage
Experimental: as §1, §2

[2] = target: T1, double mutant EGFR^L858R/T790M (Homo sapiens, UniProt P00533, L858R/T790M); test: In vitro EGFR inhibition assay, double mutant; type: biochemical; conditions: for IC50: double mutant EGFR; for Selectivity (SI): ratio of the IC50 values EGFR^WT/EGFR^L858R/T790M
T1 construct: purchased AssayQuant Technologies, Inc. (Marlboro, MA, USA)

OVCAR-5 = test: NCI single dose screen, OVCAR-5; type: cell-based; conditions: Homo sapiens; OVCAR-5, ovarian cancer; single dose 10^−5 M; read-out: growth inhibition percentage
Experimental: as §1, §2

RXF 393 = test: NCI single dose screen, RXF 393; type: cell-based; conditions: Homo sapiens; RXF 393, renal cancer; single dose 10^−5 M; read-out: growth inhibition percentage
Experimental: as §1, §2

[3] = test system: LPS-induced NO production in RAW 264.7 cells; test: NO production in LPS-activated RAW 264.7 macrophage cells (DAF-FM diacetate); type: cell-based; conditions: Mus musculus, RAW264.7; LPS-activated RAW 264.7 cells; mean ± SEM, three replicates
Experimental: as §3

MDA-MB-435 = test: NCI single dose screen, MDA-MB-435; type: cell-based; conditions: Homo sapiens; MDA-MB-435, melanoma; single dose 10^−5 M; read-out: growth inhibition percentage
Experimental: as §1, §2

EKVX = test: NCI single dose screen, EKVX; type: cell-based; conditions: Homo sapiens, non-small cell lung cancer, single dose 10^−5 M, read-out: growth inhibition percentage
Experimental: as §1, §2

SF-295 = test: NCI single dose screen, SF-295; type: cell-based; conditions: Homo sapiens; SF-295, CNS cancer; single dose 10^−5 M; read-out: growth inhibition percentage
Experimental: as §1, §2

SK-OV-3 = test: NCI single dose screen, SK-OV-3; type: cell-based; conditions: Homo sapiens; SK-OV-3, ovarian cancer; single dose 10^−5 M; read-out: growth inhibition percentage
Experimental: as §1, §2

[4] = Cell viability assay against normal cell line (MTS); type: cell-based; conditions: mouse, RAW 264.7 cells, concentrations up to 50 μM, read-out: cell viability percentage of the control values
Experimental: To evaluate the possible non-selective cytotoxic effect of the investigated compounds (6a, 6c, 6d, 6e, 6j, 6l, 6m, 6n, 6o, and 6p) on normal cells, their effect on RAW 264.7 cells viability was assessed at different concentrations (12.5, 25, 50, and 100 µM). Cell viability was measured using 3-(4,5-dimethylthiazol-2-yl)-5-(3-carboxymethoxyphenyl)-2-(4 sulfophenyl)-2H-tetrazolium (MTS) assay (Promega, Madison, Wisconsin) according to the manufacturer’s instructions.

HCT-15 = test: NCI single dose screen, HCT-15; type: cell-based; conditions: Homo sapiens; HCT-15, colon cancer; single dose 10^−5 M; read-out: growth inhibition percentage
Experimental: as §1, §2

NCI-H322M = test: NCI single dose screen, NCI-H322M; type: cell-based; conditions: Homo sapiens, non-small cell lung cancer, single dose 10^−5 M, read-out: growth inhibition percentage
Experimental: as §1, §2

UO-31 = test: NCI single dose screen, UO-31; type: cell-based; conditions: Homo sapiens; UO-31, renal cancer; single dose 10^−5 M; read-out: growth inhibition percentage
Experimental: as §1, §2

SF-268 = test: NCI single dose screen, SF-268; type: cell-based; conditions: Homo sapiens; SF-268, CNS cancer; single dose 10^−5 M; read-out: growth inhibition percentage
Experimental: as §1, §2

SNB-75 = test: NCI single dose screen, SNB-75; type: cell-based; conditions: Homo sapiens; SNB-75, CNS cancer; single dose 10^−5 M; read-out: growth inhibition percentage
Experimental: as §1, §2

NCI-H23 = test: NCI single dose screen, NCI-H23; type: cell-based; conditions: Homo sapiens; NCI-H23, non-small cell lung cancer; single dose 10^−5 M; read-out: growth inhibition percentage
Experimental: as §1, §2

U251 = test: NCI single dose screen, U251; type: cell-based; conditions: Homo sapiens, U-251; U251, CNS cancer; single dose 10^−5 M; read-out: growth inhibition percentage
Experimental: as §1, §2

MOLT-4 = test: NCI single dose screen, MOLT-4; type: cell-based; conditions: Homo sapiens; MOLT-4, leukaemia; single dose 10^−5 M; read-out: growth inhibition percentage
Experimental: as §1, §2

[5] = test system: LPS-induced TNF-α production in RAW 264.7 cells; test: TNF-α production in LPS-activated RAW 264.7 cells (ELISA); type: cell-based; conditions: for TNF-α concentration: LPS-activated RAW 264.7 cells treated with 25 µM of the compound
[6] = 25 µM, LPS-activated RAW 264.7 cells

T1 sequence (P00533 25-1210 T790M/L858R): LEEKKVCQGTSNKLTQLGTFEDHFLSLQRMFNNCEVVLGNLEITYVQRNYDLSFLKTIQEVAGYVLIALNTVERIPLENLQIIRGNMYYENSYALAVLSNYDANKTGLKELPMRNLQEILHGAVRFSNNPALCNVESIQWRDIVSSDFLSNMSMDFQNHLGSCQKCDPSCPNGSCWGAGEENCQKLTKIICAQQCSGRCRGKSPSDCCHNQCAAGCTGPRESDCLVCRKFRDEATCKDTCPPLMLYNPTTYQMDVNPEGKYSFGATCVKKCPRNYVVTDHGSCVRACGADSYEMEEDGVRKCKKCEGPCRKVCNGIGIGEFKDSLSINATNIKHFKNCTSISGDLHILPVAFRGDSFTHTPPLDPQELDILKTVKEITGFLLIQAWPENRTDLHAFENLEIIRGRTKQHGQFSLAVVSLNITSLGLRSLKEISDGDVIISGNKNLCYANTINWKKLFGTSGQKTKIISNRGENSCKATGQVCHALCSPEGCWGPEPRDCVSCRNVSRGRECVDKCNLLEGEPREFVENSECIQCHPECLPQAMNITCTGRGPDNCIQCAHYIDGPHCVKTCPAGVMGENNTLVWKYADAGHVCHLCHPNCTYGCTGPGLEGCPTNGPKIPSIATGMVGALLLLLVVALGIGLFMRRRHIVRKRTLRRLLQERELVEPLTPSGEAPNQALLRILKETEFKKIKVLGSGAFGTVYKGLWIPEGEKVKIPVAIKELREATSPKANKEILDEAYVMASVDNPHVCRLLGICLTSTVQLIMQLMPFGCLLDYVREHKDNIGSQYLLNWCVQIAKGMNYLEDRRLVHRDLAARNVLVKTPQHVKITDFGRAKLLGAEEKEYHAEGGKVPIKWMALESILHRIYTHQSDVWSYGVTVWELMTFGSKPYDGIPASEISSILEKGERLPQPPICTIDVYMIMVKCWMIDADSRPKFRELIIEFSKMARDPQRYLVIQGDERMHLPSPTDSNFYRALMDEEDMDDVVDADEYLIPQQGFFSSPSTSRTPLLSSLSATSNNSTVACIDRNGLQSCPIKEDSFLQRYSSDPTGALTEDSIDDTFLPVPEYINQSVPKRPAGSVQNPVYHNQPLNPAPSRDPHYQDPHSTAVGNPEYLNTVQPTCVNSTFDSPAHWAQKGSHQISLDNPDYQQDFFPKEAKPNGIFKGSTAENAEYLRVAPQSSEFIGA

SMILES | inhibition at 10 µM (IGROV1) | inhibition at 10 µM (SK-MEL-28) | IC50 [1] | inhibition at 10 µM (OVCAR-3) | IC50 [2] | inhibition at 10 µM (OVCAR-5) | inhibition at 10 µM (RXF 393) | IC50 [3] | inhibition at 10 µM (MDA-MB-435) | inhibition at 10 µM (EKVX) | inhibition at 10 µM (SF-295) | inhibition at 10 µM (SK-OV-3) | viability [4] | inhibition at 10 µM (HCT-15) | inhibition at 10 µM (NCI-H322M) | inhibition at 10 µM (UO-31) | inhibition at 10 µM (SF-268) | inhibition at 10 µM (SNB-75) | inhibition at 10 µM (NCI-H23) | melting point | further results
CN1c2ccccc2C(=O)N(NC(=O)Nc2ccc(F)cc2)C1c1ccccc1 (stereo not shown) [Compound 6m, 1-(4-Fluorophenyl)-3-(1-methyl-4-oxo-2-phenyl-1,4-dihydroquinazolin-3(2H)-yl)urea] | < 10% | < 10% | 57.2 ± 1 µM | 20.5% | 4.07 ± 3.7 µM | < 10% | < 10% | 10.3 ± 0.27 µM | < 10% | 10.5% | < 10% | < 10% | > 90% | 14.3% | < 10% | 40.1% | < 10% | < 10% | < 10% | 220 to 222 °C | inhibition at 10 µM (U251): < 10%; inhibition at 10 µM (MOLT-4): 23.5%; TNF-α concentration [5]: 935.60 ± 3.85 pg/mL
CN1c2ccccc2C(=O)N(NC(=O)Nc2ccc(F)cc2)C1c1ccc(F)cc1 (stereo not shown) [Compound 6n, 1-(4-Fluorophenyl)-3-(2–(4-fluorophenyl)-1-methyl-4-oxo-1,4-dihydroquinazolin-3(2H)-yl)urea] | < 10% | < 10% | 39.4 ± 2.25 µM | 41.9% | 13.5 ± 2.22 µM | < 10% | < 10% | 19.9 ± 0.71 µM | 25.8% | 16.4% | < 10% | 22.9% | > 90% | 17.5% | < 10% | 57.1% | 21.7% | 28.1% | < 10% | 214 to 216 °C | Selectivity (SI) [2]: >7.4; inhibition at 10 µM (U251): < 10%; inhibition at 10 µM (MOLT-4): 43.1%; TNF-α concentration [5]: 1981.00 ± 209.9 pg/mL
CN1c2ccccc2C(=O)N(NC(=O)Nc2ccc(F)cc2)C1c1ccc([N+](=O)[O-])cc1 (stereo not shown) [Compound 6o, 1-(4-Fluorophenyl)-3–(1-methyl-2-(4-nitrophenyl)-4-oxo-1,4-dihydroquinazolin-3(2H)-yl)urea] | < 10% | < 10% | 23.4 ± 1.13 µM | 22.7% | 36 ± 2.58 µM | < 10% | < 10% | 1.97 ± 1.45 µM | 19.9% | 19.8% | < 10% | < 10% | > 90% | 10.7% | < 10% | 41.3% | < 10% | < 10% | < 10% | 250 to 252 °C | Selectivity (SI) [2]: 1.5; inhibition at 10 µM (U251): < 10%; inhibition at 10 µM (MOLT-4): 20.4%; TNF-α level, times lower than celecoxib [5, 6]: ~10 times; TNF-α level, times lower than diclofenac [5, 6]: ~17 times; TNF-α concentration [5]: 39.37 pg/mL and 39.37 ± 1.21 pg/mL
COc1ccc(C2N(NC(=O)Nc3ccc(F)cc3)C(=O)c3ccccc3N2C)cc1 (stereo not shown) [Compound 6p, 1-(4-Fluorophenyl)-3-(2–(4-methoxyphenyl)-1-methyl-4-oxo-1,4-dihydroquinazolin-3(2H)-yl)urea] | < 10% | < 10% | 38.6 ± 1.33 µM | 17.1% | 5.41 ± 3.21 µM | < 10% | < 10% | 10.84 ± 0.05 µM | 10.7% | < 10% | < 10% | < 10% | > 90% | < 10% | < 10% | 42.6% | < 10% | < 10% | < 10% | 224 to 226 °C | Selectivity (SI) [2]: >18.5; inhibition at 10 µM (U251): < 10%; inhibition at 10 µM (MOLT-4): 11.2%; TNF-α concentration [5]: 1549.00 ± 20.25 pg/mL
